Experimental data: ChEMBL document CHEMBL1159168, “Unsaturated epoxy-C-glycosides. A new class of antitumor compounds with DNA cleavage properties” (Bioorg Med Chem Lett, 1994)
Values joined by “and” are separate entries in the source; they are usually repeats but may differ in a detail not shown here. Equal entries are not always repeated.

Legend:
Raji = assay: In vitro cytotoxicity against Raji cells from human lymphoma; assay type: functional, cell-based
LFCl2A = assay: In vitro cytotoxicity against LFCL2A cells from rat hepatocarcinoma; assay type: functional, cell-based
[1] = Rattus norvegicus, LFCl2A, read-out: IC50

Q: For `CC1=CCCCC1[C@@H]1C=C[C@@]2(CO2)[C@@H](CO)O1` (stereo not given in full), which IC50 (Raji; Homo sapiens, Raji) is on record?
A: Its IC50 is 255 µM and 60.3 µg/mL.

Q: For `C[C@@H]1O[C@@H](CC2=CCCCC2)C=C[C@]12CO2`, which IC50 (LFCl2A; [1]) is on record?
A: Its IC50 is 128 µM.

Q: What about the IC50 (LFCl2A; lfcl2a) of the same compound?
A: The IC50 was 28.3 µg/mL.

Q: For `C[C@@H]1O[C@@H](CC2=CCCCC2)C=C[C@@]12CO2`, which IC50 (LFCl2A; [1]) is on record?
A: The IC50 was 155 µM.

Q: What about the IC50 (LFCl2A; lfcl2a) of the same compound?
A: Its IC50 is 34.3 µg/mL.

Q: Which IC50 (Raji; raji) does the source give for `CC/C=C\C/C=C\C/C=C\C/C=C\C/C=C\C/C=C\CCC(=O)OC[C@H]1O[C@H](C2CCCC=C2C)C=C[C@@]12CO2` (stereo in doubt; 15) here?
A: Its IC50 is 62 µM.

Q: For `CC/C=C\C/C=C\C/C=C\C/C=C\C/C=C\C/C=C\CCC(=O)OC[C@H]1O[C@H](C2CCCC=C2C)C=C[C@@]12CO2` (stereo in doubt; 16), which IC50 (Raji; Homo sapiens, Raji) is on record?
A: The IC50 was 58 µM and 0.106 µg/mL.

Q: `CCCCC/C=C\C/C=C\C/C=C\C/C=C\CCCC(=O)OC[C@H]1O[C@H](C2CCCC=C2C)C=C[C@@]12CO2` (stereo in doubt; 17) was tested. Which IC50 (Raji; raji) did it give?
A: Its IC50 is 66 µM.

Q: How did the IC50 (Raji; raji) turn out when `CCCCC/C=C\C/C=C\C/C=C\C/C=C\CCCC(=O)OC[C@H]1O[C@H](C2CCCC=C2C)C=C[C@@]12CO2` (stereo in doubt; 18) was run?
A: The IC50 was 147 µM.

Q: For `O=C(O)CCCc1ccc(N(CCCl)CCCl)cc1` [CHLORAMBUCIL], which IC50 (Raji; Homo sapiens, Raji) is on record?
A: Its IC50 is 298 µM.
